Measurements reported in USRE30561E, “Vinca alkaloid intermediates” (Eli Lilly and Company, priority 1979, dated 1981).

How the values were obtained:
[1] = tested on: experimental malignancies; details: in vivo; cited from earlier work
[2] = tested on: GLS (Gardner lymphosarcoma); assay: Transplanted Gardner lymphosarcoma (GLS) tumor in mice; type: in vivo; details: for inhibitory activity orally / oral activity: orally
Description: (§1) The following table--Table 1--gives the results of several experiments in which mice bearing transplanted tumors were treated successfully with a compound of this invention. In the table, column 1 gives the name of the compound; column 2, the transplanted tumor; column 3, the dose level or dose level range and the number of days the dosage was administered; column 4, the route of administration, and column 5, the percent inhibition of tumor growth or percent prolongation of survival time, e.g., B16 and P388. (ROS is an abbreviation for Ridgeway osteogenic sarcoma; GLS for Gardner lymphosarcoma; P1534(J) and P388 are leukemias; CA 755 is an adenocarcinoma; and B16 is a melamoma).

[3] = tested on: transplanted tumors; details: animals; cited from earlier work
[4] = tested on: B16; assay: Transplanted B16 melanoma in mice, prolongation of survival time; type: in vivo; details: IP
Description: as §1

[5] = tested on: CA755; assay: Transplanted CA755 adenocarcinoma in mice; type: in vivo; details: for inhibitory activity orally / oral activity: orally
Description: as §1

[6] = tested on: P1534(J); assay: Transplanted P1534(J) leukemia in mice; type: in vivo
Description: as §1

[7] = tested on: ROS (Ridgeway osteogenic sarcoma); assay: Transplanted Ridgeway osteogenic sarcoma (ROS) in mice; type: in vivo; details: for inhibitory activity orally / oral activity: orally
Description: as §1

[8] = tested on: transplanted tumors; assay: Activity against transplanted tumors in mice in vivo (general); details: for dose level at which comparable tumor inhibition or prolongation of life is shown: parenterally, intraperitoneal route
Description: as §1

[9] = Toxicity at higher oral dose levels in experimental animals; type: in vivo; details: orally, above 2 (VLB) and 2-4.5 (vincristine) mg./kg.
[10] = tested on: leukemias; details: human, in vivo; cited from earlier work
[11] = humans; cited from earlier work

SMILES: CCC1(O)CN2CCc3c([nH]c4ccccc34)C(C(=O)OC)(c3cc4c(cc3OC)N(C)C3C(O)(C(=O)OC)CC5(CC)C=CCN6CCC43C65)CC(C2)C1O (stereo not drawn) [4-desacetoxy-3'-hydroxyvinblastine]
- activity in the treatment of experimental malignancies in animals [1]: active

SMILES: CCC1(O)CC2CN(CCc3c([nH]c4ccccc34)C(C(=O)OC)(c3cc4c(cc3OC)N(C)C3C(O)(C(=O)OC)CC5(CC)C=CCN6CCC43C65)C2)C1 (stereo not drawn) [4-desacetoxyvinblastine]
- activity in the treatment of experimental malignancies in animals [1]: active

SMILES: CCC1(O)CC2CN(CCc3c([nH]c4ccccc34)C(C(=O)OC)(c3cc4c(cc3OC)N(C)C3C5(OC(=O)N(C)C5=O)C(OC(=O)NC)C5(CC)C=CCN6CCC43C65)C2)C1 (stereo not drawn) [4-desacetyl VLB 3"-methyl-3-spiro-5"-oxazolidine-2", 4"-dione-4-(N-methyl)carbamate]
- Percent Inhibition of tumor growth ([2]; 0.1-2.5 mg./kg. × 7-9 days, IP): 40-100%

SMILES: CCC1(O)CC2CN(CCc3c([nH]c4ccccc34)C(C(=O)OC)(c3cc4c(cc3OC)N(C)C3C5(OC(=O)N(C)C5=O)C(O)C5(CC)C=CCN6CCC43C65)C2)C1 (stereo not drawn) [4-desacetyl VLB 3"-methyl-3-spiro-5"-oxazolidone-2",4"-dione]
- Percent Inhibition of tumor growth ([2]; 2.5 mg./kg. × 7 days, IP): 27%

SMILES: CCC1(O)CC2CN(CCc3c([nH]c4ccccc34)C(C(=O)OC)(c3cc4c(cc3OC)N(C)C3C(O)(C(=O)NCCS)C(O)C5(CC)C=CCN6CCC43C65)C2)C1 (stereo not drawn) [C-3 N-(β-mercaptoethyl)carboxamide of 4-desacetyl VLB]
- anti-tumor activity [3]: highly effective anti-tumor agent in mice

SMILES: CCC1(O)CC2CN(CCc3c([nH]c4ccccc34)C(C(=O)OC)(c3cc4c(cc3OC)N(C)C3C5(OC(=O)N(CCCl)C5=O)C(OC(C)=O)C5(CC)C=CCN6CCC43C65)C2)C1 (stereo not drawn) [VLB 3"-(β-chloroethyl)-3-spiro-5"-oxazolidine-2",4"-dione]
- Percent Inhibition of tumor growth ([2]; 0.65 mg./kg. × 10 days, IP): 47%
- Percent Inhibition of tumor growth ([2]; 0.5-0.6 mg./kg. × 9-10 days, IP): 50-74%
- Percent Inhibition of tumor growth ([2]; 3-4 mg./kg. × 9 days, PO): 92-100%
- inhibitory activity orally ([2]; 3-6 mg./kg.): 100%
- Percent Prolongation of Survival Time ([4]; 0.4-0.6 mg./kg. × 10 days): 25-178%
- indefinite survivors (survived for 60 days till end of trial) ([4]; 0.4-0.6 mg./kg. × 10 days): 5
- Percent Inhibition of tumor growth ([5]; 0.75-1.0 mg./kg. × 10 days, IP): 53%
- Percent Inhibition of tumor growth ([5]; 3-5 mg./kg. × 9-10 days, PO): 59-92%
- inhibitory activity orally ([5]; 3-6 mg./kg.): 100%
- Percent Inhibition or Prolongation of Survival Time ([6]; 3.5 mg./kg. × 8 days, PO): 100%
- Percent Inhibition or Prolongation of Survival Time ([6]; 0.4-0.6 mg./kg. × 10 days, IP): 61-86%
- inhibitory activity orally ([7]; 3-6 mg./kg.): 100%

SMILES: C=CCN1C(=O)OC2(C1=O)C(OC(C)=O)C1(CC)C=CCN3CCC4(c5cc(C6(C(=O)OC)CC7CN(CCc8c6[nH]c6ccccc86)CC(O)(CC)C7)c(OC)cc5N(C)C24)C31 (stereo not drawn) [VLB 3"-allyl-3-spiro-5"-oxazolidine-2",4"-dione]
- Percent Inhibition of tumor growth ([2]; 2.5 mg./kg. × 7 days, IP): 35%

SMILES: CCC1(O)CC2CN(CCc3c([nH]c4ccccc34)C(C(=O)OC)(c3cc4c(cc3OC)N(C)C3C5(OC(=O)N(C)C5=O)C(OC(C)=O)C5(CC)C=CCN6CCC43C65)C2)C1 (stereo not drawn) [VLB 3"-methyl-3-spiro-5"-oxazolidine-2",4"-dione]
- Percent Inhibition of tumor growth ([2]; 0.6 mg./kg. × 7 days, IP): 100%
- Percent Inhibition of tumor growth ([2]; 1.25 mg./kg. × 9 days, IP): 100%
- Percent Inhibition of tumor growth ([2]; 3-4 mg./kg. × 10 days, PO): 100%
- Percent Inhibition of tumor growth ([2]; 3-5 mg./kg. × 10 days, PO): 37-56%
- inhibitory activity orally ([2]; 6-7 mg./kg.): 100%
- Percent Prolongation of Survival Time ([4]; 4.5 mg./kg. × 10 days): 49-91%
- indefinite survivors (survived for 60 days till end of trial) ([4]; 0.5-0.6 mg./kg. × 10 days): 3
- Percent Inhibition of tumor growth ([5]; 0.5-1.0 mg./kg. × 10 days, IP): 43-100%
- inhibitory activity orally ([5]; 6-7 mg./kg.): 100%
- Percent Inhibition or Prolongation of Survival Time ([6]; 3-4 mg./kg. × 8 days, PO): 100%
- Percent Inhibition or Prolongation of Survival Time ([6]; .5-.6 mg./kg. × 10 days, IP): 100%
- Percent Inhibition of tumor growth ([7]; 5-7 mg./kg. × 10 days, PO): 38-59%
- inhibitory activity orally ([7]; 6-7 mg./kg.): 100%

SMILES: CC[C@]1(O)C[C@@H]2CN(CCc3c([nH]c4ccccc34)[C@@](C(=O)OC)(c3cc4c(cc3OC)N(C)[C@H]3[C@@](O)(C(=O)OC)[C@H](OC(C)=O)[C@]5(CC)C=CCN6CC[C@]43[C@@H]65)C2)C1 [VLB, vincaleukoblastine]
- oral activity ([2]; 2 mg./kg.): only marginally active, if at all
- oral activity ([5]; 2 mg./kg.): only marginally active, if at all
- oral activity ([7]; 2 mg./kg.): only marginally active, if at all
- activity by the oral route [8]: do not show this degree of oral activity
- dose level at which comparable tumor inhibition or prolongation of life is shown [8]: 0.4 to 0.45 mg/kg
- toxicity at higher levels [9]: usually are toxic at higher levels
- activity in the treatment of experimental malignancies in animals [1]: active

SMILES: CCC1CC2CN(CCc3c([nH]c4ccccc34)C(C(=O)OC)(c3cc4c(cc3OC)N(C)C3C(O)(C(=O)OC)C(OC(C)=O)C5(CC)C=CCN6CCC43C65)C2)C1 (stereo not drawn) [deoxy VLB "A"]
- activity in the treatment of experimental malignancies in animals [1]: active

SMILES: CCC1(O)CN2CCc3c([nH]c4ccccc34)C(C(=O)OC)(c3cc4c(cc3OC)N(C)C3C(O)(C(=O)OC)C(OC(C)=O)C5(CC)C=CCN6CCC43C65)CC(O)(C2)C1 (stereo not drawn) [leurocolombine]
- activity in the treatment of experimental malignancies in animals [1]: active

SMILES: CCC12CN3CCc4c([nH]c5ccccc45)C(C(=O)OC)(c4cc5c(cc4OC)N(C=O)C4C(O)(C(=O)OC)C(OC(C)=O)C6(CC)C=CCN7CCC54C76)CC(C3)C1O2 (stereo not drawn) [leuroformine]
- activity in the treatment of experimental malignancies in animals [1]: active

SMILES: CCC1(O)CC2CN(CCc3c([nH]c4ccccc34)C(C(=O)OC)(c3cc4c(cc3OC)N(C)C3C(O)(C(=O)OC)C(OC(C)=O)C5(CC)C=CCN6CCC43C65)C2)C1 (stereo not drawn) [leurosidine]
- activity in the treatment of experimental malignancies in animals [1]: active

SMILES: CC[C@]12CN3CCc4c([nH]c5ccccc45)[C@@](C(=O)OC)(c4cc5c(cc4OC)N(C)[C@H]4[C@@](O)(C(=O)OC)[C@H](OC(C)=O)[C@]6(CC)C=CCN7CC[C@]54[C@@H]76)C[C@H](C3)[C@H]1O2 [leurosine]
- activity in the treatment of experimental malignancies in animals [1]: active

SMILES: CCC1(O)CN2CCc3c([nH]c4ccccc34)C(C(=O)OC)(c3cc4c(cc3OC)N(C)C3C(O)(C(=O)OC)C(OC(C)=O)C5(CC)C=CCN6CCC43C65)CC(C2)C1O (stereo not drawn) [vincadioline]
- activity in the treatment of experimental malignancies in animals [1]: active

SMILES: CCC1(O)CC2CN(CCc3c([nH]c4ccccc34)C(C(=O)OC)(c3cc4c(cc3OC)N(C=O)C3C5(OC(=O)N(C)C5=O)C(OC(C)=O)C5(CC)C=CCN6CCC43C65)C2)C1 (stereo not drawn) [vincristine 3"-methyl-3-spiro-5"-oxazolidone-2",4"-dione]
- Percent Inhibition of tumor growth ([2]; 1.0 mg./kg. × 7 days, IP): 61%

SMILES: CC[C@]1(O)C[C@H]2CN(CCc3c([nH]c4ccccc34)[C@@](C(=O)OC)(c3cc4c(cc3OC)N(C=O)[C@H]3[C@@](O)(C(=O)OC)[C@H](OC(C)=O)[C@]5(CC)C=CCN6CC[C@]43[C@@H]65)C2)C1 [vincristine, leurocristine]
- oral activity ([2]; 2-4.5 mg./kg.): only marginally active, if at all
- oral activity ([5]; 2-4.5 mg./kg.): only marginally active, if at all
- oral activity ([7]; 2-4.5 mg./kg.): only marginally active, if at all
- activity by the oral route [8]: do not show this degree of oral activity
- dose level at which comparable tumor inhibition or prolongation of life is shown [8]: 0.2 to 0.25 mg/kg
- toxicity at higher levels [9]: usually are toxic at higher levels
- activity in the treatment of experimental malignancies in animals [1]: active

SMILES: CC[C@]1(O)C[C@@H]2CN(CCc3c([nH]c4ccccc34)[C@@](C(=O)OC)(c3cc4c(cc3OC)N(C)[C@H]3[C@@](O)(C(N)=O)[C@H](O)[C@]5(CC)C=CCN6CC[C@]43[C@@H]65)C2)C1 [vindesine, 4-desacetyl VLB C-3 carboxamide]
- activity in leukemias in humans [10]: active in certain leukemias
- neurotoxicity compared with vincristine [11]: less neurotoxicity than does vincristine
